Assay results: PubChem BioAssay AID248 (DTP/NCI, 2004)
Several values for one entry are separate records, joined by “and”; a condition that tells them apart may be missing. Equal values may be shown once. Toxic doses and inconclusive results are not listed.

Tested on: L1210 leukemia ip in BDF1 mice, survival T/C
Test: NCI In Vivo Anticancer Drug Screen. Data for tumor model L1210 Leukemia (intraperitoneal) in B6D2F1 (BDF1) mice
Settings: higher = longer survival
Summary of the method: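 Transplantable tumor model; survival measured in treated vs vehicle control mice. Value = treated/control.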

[1] = endpoint: mean survival time, dose: 100.0 mg/kg/injection, schedule: Q04DX003 (ip), vehicle: saline
[2] = endpoint: mean survival time, dose: 400.0 mg/kg/injection, schedule: Q04DX003 (ip), vehicle: saline
[3] = endpoint: mean survival time, dose: 100.0 mg/kg/injection, schedule: Q01DX009 (ip), vehicle: saline
[4] = endpoint: mean survival time, dose: 200.0 mg/kg/injection, schedule: Q01DX009 (ip), vehicle: saline
[5] = endpoint: mean survival time, dose: 200.0 mg/kg/injection, schedule: Q04DX003 (ip), vehicle: saline
[6] = endpoint: mean survival time, dose: 400.0 mg/kg/injection, schedule: Q01DX009 (ip), vehicle: saline

With `O=C(CCBr)N1CCN(C(=O)CCBr)CC1` the T/C (endpoint: mean survival time, dose: 1.33 mg/kg/injection, schedule: Q#B X Z (ip), vehicle: carboxymethylcellulose (CMC)) was 86 % of control, the T/C (endpoint: mean survival time, dose: 2.66 mg/kg/injection, schedule: Q#B X Z (ip), vehicle: carboxymethylcellulose (CMC)) was 108 % of control and the T/C (endpoint: mean survival time, dose: 3.2 mg/kg/injection, schedule: Q01DX Z (oral), vehicle: carboxymethylcellulose (CMC)) was 100 % of control. The T/C (endpoint: mean survival time, dose: 5.33 mg/kg/injection, schedule: Q#B X Z (ip), vehicle: carboxymethylcellulose (CMC)) was 103 % of control, the T/C (endpoint: mean survival time, dose: 5.5 mg/kg/injection, schedule: Q07DX006 (ip), vehicle: carboxymethylcellulose (CMC)) was 111 % of control and the T/C (endpoint: mean survival time, dose: 5.6 mg/kg/injection, schedule: Q01DX Z (ip), vehicle: methylcellulose (MC)) was 120 % of control. For the same compound, the T/C (endpoint: mean survival time, dose: 10.0 mg/kg/injection, schedule: Q01DX009 (ip), vehicle: saline) was 94 % of control and 102 % of control, the T/C (endpoint: mean survival time, dose: 10.6 mg/kg/injection, schedule: Q01DX Z (ip), vehicle: carboxymethylcellulose (CMC)) was 108 % of control and 117 % of control and the T/C (endpoint: mean survival time, dose: 10.66 mg/kg/injection, schedule: Q#B X Z (ip), vehicle: carboxymethylcellulose (CMC)) was 86 % of control. For the same compound, the T/C (endpoint: mean survival time, dose: 10.9 mg/kg/injection, schedule: Q07DX006 (ip), vehicle: carboxymethylcellulose (CMC)) was 90 % of control, the T/C (endpoint: mean survival time, dose: 11.25 mg/kg/injection, schedule: Q01DX Z (ip), vehicle: methylcellulose (MC)) was 115 % of control and the T/C (endpoint: mean survival time, dose: 12.0 mg/kg/injection, schedule: Q01DX006 (iv), vehicle: carboxymethylcellulose (CMC)) was 113 % of control. For the same compound, the T/C (endpoint: mean survival time, dose: 12.0 mg/kg/injection, schedule: Q01DX Z (im), vehicle: carboxymethylcellulose (CMC)) was 101 % of control, the T/C (endpoint: mean survival time, dose: 12.0 mg/kg/injection, schedule: Q01DX Z (ip), vehicle: carboxymethylcellulose (CMC)) was 95 % of control and the T/C (endpoint: mean survival time, dose: 12.0 mg/kg/injection, schedule: Q01DX Z (sc), vehicle: carboxymethylcellulose (CMC)) was 94 % of control. For the same compound, the T/C (endpoint: mean survival time, dose: 12.5 mg/kg/injection, schedule: Q01DX Z (oral), vehicle: carboxymethylcellulose (CMC)) was 110 % of control, the T/C (endpoint: mean survival time, dose: 16.0 mg/kg/injection, schedule: Q01DX Z (ip), vehicle: carboxymethylcellulose (CMC)) was 111 % of control and the T/C (endpoint: mean survival time, dose: 18.0 mg/kg/injection, schedule: Q01DX009 (ip), vehicle: saline) was 155 % of control and 158 % of control. For the same compound, the T/C (endpoint: mean survival time, dose: 20.0 mg/kg/injection, schedule: Q01DX009 (ip), vehicle: saline) was 103 % of control and 108 % of control, the T/C (endpoint: mean survival time, dose: 21.8 mg/kg/injection, schedule: Q07DX006 (ip), vehicle: carboxymethylcellulose (CMC)) was 106 % of control and the T/C (endpoint: mean survival time, dose: 24.0 mg/kg/injection, schedule: Q01DX Z (ip), vehicle: carboxymethylcellulose (CMC)) was 111 % of control. For the same compound, the T/C (endpoint: mean survival time, dose: 25.0 mg/kg/injection, schedule: Q01DX001 (ip), vehicle: saline) was 99 % of control and 106 % of control and 111 % of control, the T/C (endpoint: mean survival time, dose: 25.0 mg/kg/injection, schedule: Q01DX006 (iv), vehicle: carboxymethylcellulose (CMC)) was 94 % of control and the T/C (endpoint: mean survival time, dose: 25.0 mg/kg/injection, schedule: Q01DX Z (im), vehicle: carboxymethylcellulose (CMC)) was 94 % of control. The T/C (endpoint: mean survival time, dose: 25.0 mg/kg/injection, schedule: Q01DX Z (ip), vehicle: carboxymethylcellulose (CMC)) was 98 % of control, the T/C (endpoint: mean survival time, dose: 25.0 mg/kg/injection, schedule: Q01DX Z (oral), vehicle: carboxymethylcellulose (CMC)) was 120 % of control and the T/C (endpoint: mean survival time, dose: 25.0 mg/kg/injection, schedule: Q01DX Z (sc), vehicle: carboxymethylcellulose (CMC)) was 103 % of control. For the same compound, the T/C (endpoint: mean survival time, dose: 36.0 mg/kg/injection, schedule: Q01DX009 (ip), vehicle: saline) was 160 % of control and 186 % of control, the T/C (endpoint: mean survival time, dose: 36.0 mg/kg/injection, schedule: Q01DX Z (ip), vehicle: carboxymethylcellulose (CMC)) was 150 % of control and the T/C (endpoint: mean survival time, dose: 37.0 mg/kg/injection, schedule: Q03DX008 (ip), vehicle: carboxymethylcellulose (CMC)) was 104 % of control. The T/C (endpoint: mean survival time, dose: 45.0 mg/kg/injection, schedule: Q01DX Z (ip), vehicle: methylcellulose (MC)) was 172 % of control, the T/C (endpoint: mean survival time, dose: 50.0 mg/kg/injection, schedule: Q01DX001 (ip), vehicle: saline) was 110 % of control and 111 % of control and 116 % of control and the T/C (endpoint: mean survival time, dose: 50.0 mg/kg/injection, schedule: Q01DX006 (iv), vehicle: carboxymethylcellulose (CMC)) was 113 % of control. The T/C (endpoint: mean survival time, dose: 50.0 mg/kg/injection, schedule: Q01DX Z (im), vehicle: carboxymethylcellulose (CMC)) was 110 % of control, the T/C (endpoint: mean survival time, dose: 50.0 mg/kg/injection, schedule: Q01DX Z (ip), vehicle: carboxymethylcellulose (CMC)) was 123 % of control and the T/C (endpoint: mean survival time, dose: 50.0 mg/kg/injection, schedule: Q01DX Z (sc), vehicle: carboxymethylcellulose (CMC)) was 116 % of control. For the same compound, the T/C (endpoint: mean survival time, dose: 54.0 mg/kg/injection, schedule: Q01DX009 (ip), vehicle: saline) was 183 % of control and 208 % of control, the T/C (endpoint: mean survival time, dose: 81.0 mg/kg/injection, schedule: Q01DX Z (ip), vehicle: carboxymethylcellulose (CMC)) was 117 % of control and the T/C (endpoint: mean survival time, dose: 90.0 mg/kg/injection, schedule: Q01DX Z (ip), vehicle: methylcellulose (MC)) was 155 % of control. For the same compound, the T/C (endpoint: mean survival time, dose: 100.0 mg/kg/injection, schedule: Q01DX001 (ip), vehicle: carboxymethylcellulose (CMC)) was 103 % of control and 110 % of control, the T/C (endpoint: mean survival time, dose: 100.0 mg/kg/injection, schedule: Q01DX001 (ip), vehicle: saline) was 121 % of control and the T/C (endpoint: mean survival time, dose: 100.0 mg/kg/injection, schedule: Q01DX006 (iv), vehicle: carboxymethylcellulose (CMC)) was 123 % of control. The T/C (endpoint: mean survival time, dose: 100.0 mg/kg/injection, schedule: Q01DX Z (ip), vehicle: carboxymethylcellulose (CMC)) was 155 % of control, the T/C (endpoint: mean survival time, dose: 100.0 mg/kg/injection, schedule: Q01DX Z (oral), vehicle: carboxymethylcellulose (CMC)) was 162 % of control and the T/C [1] was 111 % of control. The T/C (endpoint: mean survival time, dose: 120.0 mg/kg/injection, schedule: Q01DX009 (ip), vehicle: saline) was 202 % of control and 218 % of control, the T/C (endpoint: mean survival time, dose: 150.0 mg/kg/injection, schedule: Q03DX008 (ip), vehicle: carboxymethylcellulose (CMC)) was 205 % of control and the T/C (endpoint: mean survival time, dose: 200.0 mg/kg/injection, schedule: Q01DX001 (ip), vehicle: carboxymethylcellulose (CMC)) was 108 % of control and 124 % of control. The T/C (endpoint: mean survival time, dose: 200.0 mg/kg/injection, schedule: Q01DX Z (im), vehicle: carboxymethylcellulose (CMC)) was 158 % of control, the T/C (endpoint: mean survival time, dose: 200.0 mg/kg/injection, schedule: Q01DX Z (ip), vehicle: carboxymethylcellulose (CMC)) was 162 % of control and the T/C (endpoint: mean survival time, dose: 200.0 mg/kg/injection, schedule: Q01DX Z (oral), vehicle: carboxymethylcellulose (CMC)) was 90 % of control. For the same compound, the T/C (endpoint: mean survival time, dose: 200.0 mg/kg/injection, schedule: Q01DX Z (sc), vehicle: carboxymethylcellulose (CMC)) was 158 % of control, the T/C (endpoint: mean survival time, dose: 300.0 mg/kg/injection, schedule: Q03DX008 (ip), vehicle: carboxymethylcellulose (CMC)) was 181 % of control and the T/C (endpoint: mean survival time, dose: 350.0 mg/kg/injection, schedule: Q07DX004 (ip), vehicle: carboxymethylcellulose (CMC)) was 215 % of control. The T/C (endpoint: mean survival time, dose: 400.0 mg/kg/injection, schedule: Q01DX001 (ip), vehicle: carboxymethylcellulose (CMC)) was 102 % of control, the T/C (endpoint: mean survival time, dose: 400.0 mg/kg/injection, schedule: Q01DX001 (ip), vehicle: saline) was 114 % of control and the T/C (endpoint: mean survival time, dose: 400.0 mg/kg/injection, schedule: Q01DX Z (im), vehicle: carboxymethylcellulose (CMC)) was 100 % of control. For the same compound, the T/C (endpoint: mean survival time, dose: 400.0 mg/kg/injection, schedule: Q01DX Z (ip), vehicle: carboxymethylcellulose (CMC)) was 94 % of control, the T/C (endpoint: mean survival time, dose: 400.0 mg/kg/injection, schedule: Q01DX Z (sc), vehicle: carboxymethylcellulose (CMC)) was 98 % of control and the T/C [2] was 153 % of control and 180 % of control. For the same compound, the T/C (endpoint: mean survival time, dose: 600.0 mg/kg/injection, schedule: Q03DX003 (ip), vehicle: carboxymethylcellulose (CMC)) was 90 % of control, the T/C (endpoint: mean survival time, dose: 700.0 mg/kg/injection, schedule: Q07DX004 (ip), vehicle: carboxymethylcellulose (CMC)) was 100 % of control and the T/C (endpoint: mean survival time, dose: 800.0 mg/kg/injection, schedule: Q01DX001 (ip), vehicle: carboxymethylcellulose (CMC)) was 98 % of control and 116 % of control. The T/C (endpoint: median survival time, dose: 10.0 mg/kg/injection, schedule: Q01DX009 (ip), vehicle: saline) was 105 % of control and 87 % of control, the T/C (endpoint: median survival time, dose: 40.0 mg/kg/injection, schedule: Q01DX009 (ip), vehicle: saline) was 150 % of control and the T/C (endpoint: median survival time, dose: 80.0 mg/kg/injection, schedule: Q01DX009 (ip), vehicle: saline) was 181 % of control and 183 % of control.
With `CC(O)C(O)C(O)C(/C=N\NC(N)=S)=N/NC(N)=S` (configuration not stated) the T/C [3] was 95 % of control, the T/C [1] was 104 % of control and the T/C [4] was 89 % of control. The T/C [5] was 105 % of control, the T/C [6] was 90 % of control and the T/C [2] was 94 % of control.
`CCCCCCCCCCCCC(=O)OC` was tested, and the T/C (endpoint: mean survival time, dose: 100.0 mg/kg/injection, schedule: Q04DX003 (ip), vehicle: saline with Tween-80) was 101 % of control, the T/C (endpoint: mean survival time, dose: 200.0 mg/kg/injection, schedule: Q04DX003 (ip), vehicle: saline with Tween-80) was 96 % of control and the T/C (endpoint: mean survival time, dose: 400.0 mg/kg/injection, schedule: Q04DX003 (ip), vehicle: saline with Tween-80) was 98 % of control.
With `O=C(CCCCC(=O)N/N=C\c1ccccn1)N/N=C\c1ccccn1` the T/C [3] was 98 % of control, the T/C [1] was 96 % of control and the T/C [4] was 89 % of control. For the same compound, the T/C [5] was 107 % of control, the T/C [6] was 100 % of control and the T/C [2] was 89 % of control.
In the case of `CCC1OCC(C(Cl)CCl)O1` (configuration not stated), the T/C (endpoint: mean survival time, dose: 100.0 mg/kg/injection, schedule: Q01DX009 (ip), vehicle: saline sonified) is reported as 99 % of control.
